Measurements: the supplement of paper PMC9013687
± gives the standard deviation of the averaged measurements.

How the values were obtained:
[1] = tested on: Danio rerio embryo; assay: EC20 Eye-jaw distance_Decrease; higher = less potent; conditions: exposure time: 4 dpf
Protocol: (§1)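 Zebrafish embryos (UFZ-OBI strain) were exposed from 2 hpf for 48 h (2 dpf) or 96 h (4 dpf) at 28 °C; spontaneous tail coiling was scored at 25 hpf. Morphological features from automated image analysis (FishInspector), heart rate and locomotor response were fitted with drc models. Quantal endpoints were dichotomised at 2.5 SD from controls and fitted with a log-logistic model; heart rate, pigmentation and STC were normalised to the replicate control mean. Betamethasone was tested as betamethasone dipropionate, diflorasone as diflorasone diacetate.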

[2] = tested on: Danio rerio embryo; assay: EC20 Curvature_Increase; higher = less potent
Protocol: as §1

[3] = tested on: Danio rerio embryo; assay: EC20 LMR dark; higher = less potent; conditions: exposure time: 4 dpf
Protocol: as §1

[4] = tested on: Danio rerio embryo; assay: EC50 Body length_Decrease
Protocol: as §1

[5] = tested on: Danio rerio embryo; assay: EC20 Any effect; higher = less potent
Protocol: as §1

[6] = tested on: Danio rerio embryo; assay: EC10 Body length_Decrease; higher = less potent
Protocol: as §1

[7] = tested on: Danio rerio embryo; assay: EC20 Otolith-eye distance_Decrease; higher = less potent; conditions: exposure time: 4 dpf
Protocol: as §1

[8] = tested on: Danio rerio embryo; assay: EC10 Yolk sac size_Increase; higher = less potent; conditions: exposure time: 4 dpf
Protocol: as §1

[9] = tested on: Danio rerio embryo
Protocol: as §1

[10] = tested on: Danio rerio embryo; assay: EC10 Curvature_Increase; higher = less potent
Protocol: as §1

[11] = tested on: Danio rerio embryo; assay: EC10 Any effect; higher = less potent
Protocol: as §1

[12] = tested on: Danio rerio embryo; assay: EC10 Bladder size_Decrease; higher = less potent; conditions: exposure time: 4 dpf
Protocol: as §1

[13] = tested on: Danio rerio embryo; assay: EC10 Pericard size_Increase; higher = less potent
Protocol: as §1

[14] = tested on: Danio rerio embryo; assay: EC10 Otolith-eye distance_Decrease; higher = less potent; conditions: exposure time: 4 dpf
Protocol: as §1

[15] = tested on: Danio rerio embryo; assay: EC50 Eye-jaw distance_Decrease; conditions: exposure time: 4 dpf
Protocol: as §1

[16] = tested on: Danio rerio embryo; assay: EC10 LMR dark; higher = less potent; conditions: exposure time: 4 dpf
Protocol: as §1

[17] = tested on: Danio rerio embryo; assay: EC20 Yolk sac size_Increase; higher = less potent; conditions: exposure time: 4 dpf
Protocol: as §1

[18] = tested on: Danio rerio embryo; assay: EC50 Yolk sac size_Increase; conditions: exposure time: 4 dpf
Protocol: as §1

[19] = tested on: Danio rerio embryo; conditions: exposure time: 4 dpf
Protocol: as §1

[20] = tested on: Danio rerio embryo; assay: EC20 Bladder size_Decrease; higher = less potent; conditions: exposure time: 4 dpf
Protocol: as §1

[21] = tested on: Danio rerio embryo; assay: EC50 Otolith-eye distance_Decrease; conditions: exposure time: 4 dpf
Protocol: as §1

[22] = tested on: Danio rerio embryo; assay: EC50 Bladder size_Decrease; conditions: exposure time: 4 dpf
Protocol: as §1

[23] = tested on: Danio rerio embryo; assay: spontaneous tail coiling frequency (coils/min/embryo); higher = more spontaneous movement; conditions: 25 hpf
Protocol: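 Spontaneous tail coilings of zebrafish embryos exposed from 2 hpf were recorded at 24-25 hpf in 1-min videos and detected by a KNIME workflow from grey-value variance. Betamethasone was tested as the dipropionate, diflorasone as the diacetate.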

[24] = tested on: Danio rerio embryo; assay: EC20 Pericard size_Increase; higher = less potent
Protocol: as §1

[25] = tested on: Danio rerio embryo; assay: EC10 Eye-jaw distance_Decrease; higher = less potent; conditions: exposure time: 4 dpf
Protocol: as §1

[26] = tested on: Danio rerio embryo; assay: EC50 Pericard size_Increase
Protocol: as §1

[27] = tested on: Danio rerio embryo; assay: EC20 Body length_Decrease; higher = less potent
Protocol: as §1

[28] = tested on: Danio rerio embryo; assay: EC50 Curvature_Increase
Protocol: as §1

For `CC(C)(C)C(O)C(Oc1ccc(Cl)cc1)n1cncn1` (stereo not drawn) [Triadimenol], the “EC20 Eye-jaw distance Decrease” value [1] was 41.2 µM, the “EC20 Curvature Increase” value ([2]; exposure time: 2 dpf) was 123 µM and the “EC20 Curvature Increase” value ([2]; exposure time: 4 dpf) was 82.4 µM. For the same compound, the “EC20 LMR dark” value [3] was 10.7 µM, the “EC50 Body length Decrease” value ([4]; exposure time: 2 dpf) was 169 µM and the “EC50 Body length Decrease” value ([4]; exposure time: 4 dpf) was 106 µM. For the same compound, the “EC20 Any effect” value ([5]; exposure time: 2 dpf) was 127 µM, the “EC20 Any effect” value ([5]; exposure time: 4 dpf) was 31.7 µM and the “EC10 Body length Decrease” value ([6]; exposure time: 2 dpf) was 71.8 µM. The “EC10 Body length Decrease” value ([6]; exposure time: 4 dpf) was 71.3 µM, the “EC20 Otolith-eye distance Decrease” value [7] was 74.3 µM and the “EC10 Yolk sac size Increase” value [8] was 76.8 µM. For the same compound, the “EC50 Any effect” value ([9]; exposure time: 2 dpf) was 133 µM, the “EC50 Any effect” value ([9]; exposure time: 4 dpf) was 45.5 µM and the “EC50 STC decrease” value ([9]; exposure time: 25 h) was 169 µM. For the same compound, the “EC10 Curvature Increase” value ([10]; exposure time: 2 dpf) was 116 µM, the “EC10 Curvature Increase” value ([10]; exposure time: 4 dpf) was 67.2 µM and the “EC10 Any effect” value ([11]; exposure time: 2 dpf) was 123 µM. For the same compound, the “EC10 Any effect” value ([11]; exposure time: 4 dpf) was 25.7 µM, the “EC10 Bladder size Decrease” value [12] was 19.9 µM and the “EC10 Pericard size Increase” value ([13]; exposure time: 2 dpf) was 113 µM. The “EC10 Pericard size Increase” value ([13]; exposure time: 4 dpf) was 64.1 µM, the “EC10 Otolith-eye distance Decrease” value [14] was 63.4 µM and the “EC50 Eye-jaw distance Decrease” value [15] was 51.4 µM. The “EC10 LMR dark” value [16] was 6.51 µM, the “EC20 Yolk sac size Increase” value [17] was 88.7 µM and the “EC50 Yolk sac size Increase” value [18] was 114 µM. For the same compound, the “EC50 LMR dark” value [19] was 25.2 µM, the “EC20 Bladder size Decrease” value [20] was 20.2 µM and the “EC50 Otolith-eye distance Decrease” value [21] was 97.6 µM. The “EC50 Bladder size Decrease” value [22] was 20.7 µM, the “spontaneous tail coiling frequency” value ([23]; 10.6 µM) was 2.49 and the “spontaneous tail coiling frequency” value ([23]; 21.1 µM) was 2.29. The “spontaneous tail coiling frequency” value ([23]; 42.3 µM) was 3.32 ± 0.78, the “spontaneous tail coiling frequency” value ([23]; 84.5 µM) was 2.24 ± 0.39 and the “spontaneous tail coiling frequency” value ([23]; 118.3 µM) was 1.91. For the same compound, the “spontaneous tail coiling frequency” value ([23]; 169.1 µM) was 1.28 ± 0.37, the “spontaneous tail coiling frequency” value ([23]; 253.6 µM) was 0.06 and the “spontaneous tail coiling frequency” value ([23]; 338.1 µM) was 0. The “EC20 Pericard size Increase” value ([24]; exposure time: 2 dpf) was 146 µM, the “EC20 Pericard size Increase” value ([24]; exposure time: 4 dpf) was 71 µM and the “EC10 Eye-jaw distance Decrease” value [25] was 36.1 µM. The “EC50 Pericard size Increase” value ([26]; exposure time: 2 dpf) was 225 µM, the “EC50 Pericard size Increase” value ([26]; exposure time: 4 dpf) was 84.3 µM and the “EC20 Body length Decrease” value ([27]; exposure time: 2 dpf) was 98.6 µM. For the same compound, the “EC20 Body length Decrease” value ([27]; exposure time: 4 dpf) was 82.5 µM, the “EC50 Curvature Increase” value ([28]; exposure time: 2 dpf) was 136 µM and the “EC50 Curvature Increase” value ([28]; exposure time: 4 dpf) was 117 µM.
